Assay results: paper PMC12080319 (The Plant Journal, 2025)
Substitutions are numbered along the chain they refer to.

Experiments:
Test in all cases: microscale thermophoresis
Format in all cases: binding
OsNAT9 (OsNAT9-GFP) [1] = target: T1, OsNAT9 (OsNAT9-GFP) (Oryza sativa, UniProt Q10ET9, S344A)
T1 sequence (Q10ET9 1-527 S344A): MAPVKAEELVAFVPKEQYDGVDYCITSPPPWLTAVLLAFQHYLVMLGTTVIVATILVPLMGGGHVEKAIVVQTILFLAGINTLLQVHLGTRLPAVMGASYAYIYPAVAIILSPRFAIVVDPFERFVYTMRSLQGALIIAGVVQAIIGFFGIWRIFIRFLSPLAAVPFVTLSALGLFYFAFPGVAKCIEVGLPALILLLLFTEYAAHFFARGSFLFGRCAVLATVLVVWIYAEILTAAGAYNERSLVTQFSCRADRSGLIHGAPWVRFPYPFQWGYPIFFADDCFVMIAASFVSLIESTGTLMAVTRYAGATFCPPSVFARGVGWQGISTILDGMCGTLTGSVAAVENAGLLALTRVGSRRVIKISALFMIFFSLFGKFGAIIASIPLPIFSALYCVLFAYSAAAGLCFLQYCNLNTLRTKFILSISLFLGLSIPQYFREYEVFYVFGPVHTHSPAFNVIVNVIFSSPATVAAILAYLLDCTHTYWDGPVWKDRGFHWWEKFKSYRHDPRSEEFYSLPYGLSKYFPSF

OsNAT9 (OsNAT9-GFP) [2] = target: T2, OsNAT9 (OsNAT9-GFP) (Oryza sativa, UniProt Q10ET9, E346A)
T2 sequence (Q10ET9 1-527 E346A): T1 sequence (Q10ET9 1-527 S344A) with A344S, E346A

OsNAT9 (OsNAT9-GFP) [3] = target: T3, OsNAT9 (OsNAT9-GFP) (Oryza sativa, UniProt Q10ET9, G349A)
T3 sequence (Q10ET9 1-527 G349A): T1 sequence (Q10ET9 1-527 S344A) with A344S, G349A

OsNAT9 (OsNAT9-GFP) [4] = target: T4, OsNAT9 (OsNAT9-GFP) (Oryza sativa, UniProt Q10ET9)
T4 sequence (Q10ET9 1-527): T1 sequence (Q10ET9 1-527 S344A) with A344S

| Compound | Kd (OsNAT9 (OsNAT9-GFP) [1]) [nM] | Kd (OsNAT9 (OsNAT9-GFP) [2]) [nM] | Kd (OsNAT9 (OsNAT9-GFP) [3]) [nM] | Kd (OsNAT9 (OsNAT9-GFP) [4]) [nM] |
| --- | --- | --- | --- | --- |
| O=C1O[C@H]([C@@H](O)CO)C(O)=C1O [AsA, ascorbic acid] | 101 ± 27.6 | 80.7 ± 6.06 | 0.55 ± 0.53 | 0.28 ± 0.23 |
| O=c1[nH]c(=O)c2[nH]cnc2[nH]1 [xanthine] | – | – | – | 0.39 ± 0.11 |
